From US20260294769A1, “ASCORBIC ACID DERIVATIVES AND COSMETIC THEREOF” (SEIWA KASEI COMPANY, LIMITED, priority 2023, published 2026)

Assays:
[1] = test system: Normal human dermal fibroblasts (NHDF); test: Hyaluronic acid production promoting effect (ELISA of hyaluronic acid in supernatant); type: cell-based; conditions: 10 mM or less, 48 hours, control group set to 100%, N=3
Outline: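 NHDF seeded at 2.5×10^4 cells/well in D-MEM with 5% FBS, pre-incubated 24 h, then exposed to samples in serum-free D-MEM for 48 h. Supernatant hyaluronic acid measured by ELISA in triplicate, expressed as % of control (100%) at ≤10 mM sample.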

[2] = Stability Test-2: residual rate in cream of pH 7 or 9 stored at 50° C.; type: physicochemical
Outline: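 Each test sample was formulated into a cream adjusted to pH 7 or 9: components (a) and (b) were heated and mixed separately, cooled, and then component (c) was added. The cream was held at 50° C., and the percentage of the sample compound still present (residual rate) was determined after storage.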

[3] = test system: Normal human dermal fibroblasts; test: Collagen production promoting effect (ELISA of free collagen in supernatant); type: cell-based; conditions: 10 mM or less, 48 hours, control group set to 100%, N=3
Procedure: Normal human dermal fibroblasts were prepared in D-MEM containing 5% (v/v) fetal bovine serum to a cell density of 2.5×10^4 cells/well, and then pre-incubated for 24 hours on a 96-well plate. After removing the medium, samples prepared to a predetermined concentration in D-MEM containing 5% (v/v) fetal bovine serum were added to each well and cultured for 48 hours. After the culture was completed, the amount of free collagen in the supernatant was quantified by ELISA. Measurements were performed in triplicate (N=3).
The amount of collagen produced when the sample was measured at a concentration of 10 mM or less was compared with that of the control group, and the results (% values when the control group was set to 100%) are shown in Table 17 based on the following criteria.

[4] = Stability Test-2: odor of cream stored at 50° C.; type: physicochemical; conditions: 10 panelists
Outline: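 Test creams were made by heating and mixing components (a) and (b), cooling, then adding component (c) to give a pH of 7 or 9. After storage at 50° C., 10 panelists scored odor: 3 almost odorless, 2 slight strange odor, 1 strong odor. Totals were graded ◯ (25 or more), Δ (16-24) or x (15 or less).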

[5] = test system: Normal human epidermal keratinocytes; test: Antioxidant effect: ROS production inhibition rate (DCFHDA, H2O2); type: cell-based; conditions: 10 mM or less, 24 hours incubation, 0.2 mM H2O2, N=4
Procedure: Normal human epidermal keratinocytes were seeded onto a 96-well plate using KG2 medium at a cell density of 2.0×10^4 cells/well. After 24 hours of pre-incubation, samples adjusted to a predetermined concentration in KG2 medium were added to each well. After 24 hours of incubation, the medium was removed, followed by washing with HBSS(−) and the incorporation of the ROS-reactive fluorescent probe DCFHDA for 30 minutes. The cells were again washed with HBSS(−), treated with 0.2 mM H2O2, and incubated for 2 hours. The fluorescence intensity was measured, and the amount of ROS produced per unit protein was calculated by dividing the fluorescence intensity by the amount of protein quantified by the BCA method, resulting in an analytical value of 1. Furthermore, the amount of ROS production calculated without adding the sample adjusted to a predetermined concentration using the above test method was set to analytical value 2; and the amount of ROS production calculated without adding the sample or 0.2 mM H2O2 was set to analytical value 3.
ROS production inhibition rate (%) was calculated using the following formula. The higher the ROS production inhibition rate, the greater the antioxidant effect can be evaluated to be.
The ROS production inhibition rate when the sample was measured at a concentration of 10 mM or less was evaluated as follows. Note that the measurement was performed in N=4.

[6] = Stability Test-2: coloration of cream stored at 50° C.; type: physicochemical; conditions: 10 panelists
Outline: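 Creams were made by heating and mixing parts (a) and (b), cooling, then adding part (c), adjusting pH to 7 or 9. After storage at 50° C., ten panelists scored coloration against the freshly prepared cream: 3 for almost no change, 2 for color change, 1 for strong coloration.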

[7] = cream pH 7, 50° C., after 2 weeks, 20160 min
[8] = cream pH 7, 50° C., after 4 weeks, 40320 min
[9] = cream pH 9, 50° C., after 2 weeks, 20160 min
[10] = cream pH 9, 50° C., after 4 weeks, 40320 min

SMILES	Hyaluronic acid production-promoting effect [1]	Residual Rate [2, 7]	Residual Rate [2, 8]	Residual Rate [2, 9]	Residual Rate [2, 10]	Collagen production-promoting effect [3]	Odor ([4]; after 2 weeks)	Odor ([4]; after 4 weeks)	Antioxidant effect (ROS production inhibition rate) [5]	Coloration ([6]; after 2 weeks)	Coloration ([6]; after 4 weeks)
CCCC(=O)OCC(OC(=O)CCC)C1OC(=O)C2=C1OCCCCO2 (stereo not shown) [Synthesis Example 10, 5,6-O-dibutanoyl-2,3-O-(1,4-butanediyl) ascorbic acid]	++ (120%<)	⊚ (95% or more)	⊚ (95% or more)	⊚ (95% or more)	⊚ (95% or more)	++ (140%<)	◯ (Total score of 10 panelists is 25 or more)	Δ (Total score of 10 panelists is 16-24)	+ (<20%)	◯ (Total score of 10 panelists is 25 or more)	◯ (Total score of 10 panelists is 25 or more)
CC(C)CCCCCCCCCCCCCCC(=O)OC[C@H](O)[C@H]1OC(=O)C2=C1OCCCCO2 [Synthesis Example 17, 6-O-isostearoyl-2,3-O-(1,4-butanediyl) ascorbic acid]	++ (120%<)	⊚ (95% or more)	⊚ (95% or more)	⊚ (95% or more)	⊚ (95% or more)	++ (140%<)	◯ (Total score of 10 panelists is 25 or more)	Δ (Total score of 10 panelists is 16-24)	+ (<20%)	◯ (Total score of 10 panelists is 25 or more)	◯ (Total score of 10 panelists is 25 or more)
